Source: article PMC2606922 (Molecular pharmacology, 2008)

Key:
[1] = target: adult mouse receptors with two δ-subunits (lacking the ε-subunit) (Mus musculus, UniProt P02716+P04756); experiment: outside-out patch clamp, relative peak current; assay type: biochemical; settings: 300 μM ACh, -50 mV, 22-25°C, pH 7.3
[2] = target: adult mouse muscle nAChR, (α1)2β1εδ (Mus musculus, UniProt P02716+P04756+P20782); experiment: outside-out patch clamp, relative peak current; assay type: biochemical; settings: 300 μM ACh, -50 mV, 22-25°C, pH 7.3
Chain of adult mouse muscle nAChR, (α1)2β1εδ (P04756 21-457): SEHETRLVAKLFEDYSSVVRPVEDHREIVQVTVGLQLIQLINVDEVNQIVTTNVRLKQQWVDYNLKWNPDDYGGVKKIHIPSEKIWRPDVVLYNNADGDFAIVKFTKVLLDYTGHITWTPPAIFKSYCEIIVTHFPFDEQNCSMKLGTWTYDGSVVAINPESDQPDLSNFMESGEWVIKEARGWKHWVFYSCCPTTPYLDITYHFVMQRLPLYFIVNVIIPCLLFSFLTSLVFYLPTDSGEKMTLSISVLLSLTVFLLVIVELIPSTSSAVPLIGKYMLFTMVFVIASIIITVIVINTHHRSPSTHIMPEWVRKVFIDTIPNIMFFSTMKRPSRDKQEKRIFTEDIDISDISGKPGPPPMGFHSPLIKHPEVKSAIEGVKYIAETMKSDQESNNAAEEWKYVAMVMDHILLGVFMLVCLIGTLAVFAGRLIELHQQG
Chain of adult mouse muscle nAChR, (α1)2β1εδ (P20782 21-493): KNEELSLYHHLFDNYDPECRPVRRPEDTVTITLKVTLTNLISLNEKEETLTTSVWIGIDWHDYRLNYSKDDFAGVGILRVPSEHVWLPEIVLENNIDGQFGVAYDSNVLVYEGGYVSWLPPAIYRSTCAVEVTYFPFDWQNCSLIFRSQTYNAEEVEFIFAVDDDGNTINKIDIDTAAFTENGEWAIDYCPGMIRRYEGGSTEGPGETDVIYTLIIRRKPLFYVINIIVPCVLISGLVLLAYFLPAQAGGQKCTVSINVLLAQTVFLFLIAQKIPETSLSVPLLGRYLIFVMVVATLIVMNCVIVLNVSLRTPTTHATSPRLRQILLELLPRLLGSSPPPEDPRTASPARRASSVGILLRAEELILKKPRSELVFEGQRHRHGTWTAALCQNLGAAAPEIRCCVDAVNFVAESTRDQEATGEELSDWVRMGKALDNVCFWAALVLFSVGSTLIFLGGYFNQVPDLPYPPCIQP
Chain of adult mouse muscle nAChR, (α1)2β1εδ (P02716 25-520): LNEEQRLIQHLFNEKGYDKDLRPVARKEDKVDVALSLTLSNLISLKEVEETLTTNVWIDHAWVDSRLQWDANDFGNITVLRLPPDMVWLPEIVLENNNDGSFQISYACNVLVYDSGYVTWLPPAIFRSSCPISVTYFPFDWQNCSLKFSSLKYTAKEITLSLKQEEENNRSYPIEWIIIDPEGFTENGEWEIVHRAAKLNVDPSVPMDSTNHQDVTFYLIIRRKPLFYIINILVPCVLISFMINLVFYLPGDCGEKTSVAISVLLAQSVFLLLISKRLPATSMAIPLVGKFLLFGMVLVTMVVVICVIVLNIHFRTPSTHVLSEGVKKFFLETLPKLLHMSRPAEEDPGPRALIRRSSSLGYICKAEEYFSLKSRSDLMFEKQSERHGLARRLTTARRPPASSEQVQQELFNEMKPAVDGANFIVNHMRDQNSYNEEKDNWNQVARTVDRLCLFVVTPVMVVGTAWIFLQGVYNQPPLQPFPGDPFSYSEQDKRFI
Chain of adult mouse muscle nAChR, (α1)2β1εδ (P09690 24-501 partner): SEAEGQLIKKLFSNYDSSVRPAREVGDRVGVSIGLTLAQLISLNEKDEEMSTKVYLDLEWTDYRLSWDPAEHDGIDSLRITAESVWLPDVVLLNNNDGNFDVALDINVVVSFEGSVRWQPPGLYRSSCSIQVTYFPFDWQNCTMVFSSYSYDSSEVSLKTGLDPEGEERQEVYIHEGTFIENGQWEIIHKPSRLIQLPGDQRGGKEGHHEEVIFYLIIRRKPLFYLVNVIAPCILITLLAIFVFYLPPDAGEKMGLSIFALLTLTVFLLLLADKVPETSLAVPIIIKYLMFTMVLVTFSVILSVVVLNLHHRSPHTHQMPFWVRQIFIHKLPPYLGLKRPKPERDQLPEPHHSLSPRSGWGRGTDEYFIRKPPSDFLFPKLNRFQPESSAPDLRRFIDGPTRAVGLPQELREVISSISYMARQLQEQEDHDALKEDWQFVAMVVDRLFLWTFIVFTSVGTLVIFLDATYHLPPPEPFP

Chain of adult mouse receptors with two δ-subunits (lacking the ε-subunit) (P04756 21-457): as the sequence (P04756 21-457) above
Chain of adult mouse receptors with two δ-subunits (lacking the ε-subunit) (P02716 25-520): as the sequence (P02716 25-520) above
Chain of adult mouse receptors with two δ-subunits (lacking the ε-subunit) (P09690 24-501 partner): as the sequence (P09690 24-501 partner) above

C=CC[N+]1([C@H]2C[C@H]3[C@@H]4CC[C@H]5C[C@H](O)[C@@H](N6CCOCC6)C[C@]5(C)[C@H]4CC[C@]3(C)[C@H]2OC(C)=O)CCCC1 [rocuronium]
current relative to control at 40 nM [1]: 0.16 ± 0.01
current relative to control at 40 nM [2]: 0.32 ± 0.05
